These results are taken from patent publication US11813277B2, “Methods and agents for modulating inflammation” (The Regents of the University of California, priority 2018, dated 2023).

Assay [1] concerns A549, HCT116, cortical neurons, cortical astrocytes, BMDM, NRVM. Nature of the assay: Respiration in intact cells offered glucose, glutamine, pyruvate (six cell types). The class given is cell-based. How it is done:
(§1) All respirometry studies were conducted in either a Seahorse XF96 or XFe96 Analyzer. All experiments were conducted at 37° C., and at pH 7.4 (intact cells) or 7.2 (permeabilized cells and isolated mitochondria). Calculation of respiratory parameters was made according to standard protocols (Divakaruni, A. S., Paradyse, A., Ferrick, D. A., Murphy, A. N., and Jastroch, M. (2014a) Analysis and interpretation of microplate-based oxygen consumption and pH data. Meth. Enzym 547, 509-54), and all rates were corrected for non-mitochondrial respiration/background signal by subtracting the oxygen consumption rate insensitive to rotenone plus antimycin A.
When diagnosing an off-target effect of etomoxir (FIG. 5A, FIG. 5B, FIG. 5C), all cells apart from primary neurons were offered 8 mM glucose, 2 mM glutamine, and 2 mM pyruvate in unbuffered DMEM supplemented with 5 mM HEPES. […] Respiration in all intact cells was measured in the basal state as well as in response to 2 μM oligomycin, FCCP (either 400 nM, 800 nM or 1.2 μM as appropriate and previously optimized), and 0.2 μM rotenone with 1 μM antimycin A. Etomoxir (at concentrations indicated in the text), UK5099 (3 μM), or BPTES (3 μM) were added to the assay medium 30 min prior to measurements.

Another assay deals with HepG2 cells. Kind of assay: Palmitate-driven respiration in intact HepG2 cells (Seahorse). Format: cell-based. The method, then: as §1
Palmitate oxidation in intact cells (FIG. 1A, FIG. 1B) was assessed by measuring palmitate-driven respiration that was sensitive to low concentrations of etomoxir (Rogers, G. W., Nadanaciva, S., Swiss, R., Divakaruni, A. S., and Will, Y. (2014) Assessment of fatty acid beta oxidation in cells and isolated mitochondria. Curr. Protoc. Toxicol. 60, 25.3, 1-19). […] Respiration was measured under basal conditions as well as after injection of 2 μM oligomycin, two sequential additions of 1 μM FCCP, followed by 0.2 μM rotenone with 1 μM antimycin A. Etomoxir was added to the assay medium 30 min. prior to measurements of basal respiratory rates.

In assay [2] the test system is phosphate (Pi) transporter. Nature of the assay: Phosphate transporter assay (mitochondrial swelling). The class given is biochemical, rat. As to conditions: 250 μM etomoxir, 100 μM NEM, 10 μM mersalyl. The method, then: Phosphate transport was measured by monitoring swelling of de-energized mitochondria in isotonic potassium phosphate medium based upon principles described by Coty, W. A. and Pedersen, P. L. (1975) Phosphate transport in rat liver mitochondria. Kinetics, inhibitor sensitivity, energy requirements, and labeled components. Mol Cell Biochem. 9, 109-24. As the phosphate carrier acts as electroneutral symporter with protons, the process is self-restricting due to generation of an opposing pH gradient. […] In the presence of nigericin, the proton fluxes cycle resulting in electro- and pH-neutral transport of potassium phosphate down its concentration gradient into the mitochondrial matrix, resulting in osmotic accumulation of water. Under these conditions, transport is limited by the activity of phosphate carrier, and can be recorded as mitochondrial swelling (a decrease in light scattering).
The measurements were performed in an LS-50B spectrofluorometer (Perkin-Elmer) at 540 nm. Assay medium contained 125 mM potassium phosphate, pH 7.2, 0.5 mM EGTA, and 2 μM rotenone. Mouse liver mitochondria (0.5 mg/ml) were treated with 250 μM etomoxir, 100 μM N-ethylmaleimide (NEM) (Klingenberg, M., Durand, R., and Guerin, B. (1974) Analysis of the reactivity of SH-reagents with the mitochondrial phosphate carrier. Eur J Biochem, 42, 135-150) or 10 μM mersalyl (Paradies, G. and Ruggiero, F. M. (1991) Effect of aging on the activity of the phosphate carrier and on the lipid composition in rat liver mitochondria. Arch Biochem Biophys. 284, 332-337) and the reaction was started with 5 μM nigericin. Typical traces from 3 experiments are shown. To establish the maximally swollen state of mitochondria, 80 μg/ml alamethicin was used.

Structures are written as SMILES.

On to `CCOC(=O)[C@@]1(CCCCCCOc2ccc(Cl)cc2)CO1` [etomoxir], for which the maximal respiratory rate entry in assay [1] (3 μM etomoxir, no fatty acids or carnitine) is “did not inhibit respiration”. Also, the “ATP-linked vs uncoupler-stimulated respiration” value in assay [1] (increasing, high concentrations of etomoxir) is recorded as “disproportionately inhibited ATP-linked respiration relative to uncoupler-stimulated respiration”. In addition, in the assay on HepG2 cells (1 μM etomoxir), the FCCP-stimulated respiration result is given as “largely sensitive”. For the same compound, the “half-maximal inhibitory concentration (EC50) for uncoupler-stimulated respiration” value in the assay with HepG2 cells (intact HepG2, albumin-buffered palmitate) was “sub-micromolar”. The “Pi transporter activity (rate of swelling)” value in assay [2] is “does not inhibit”; in assay [2] (listed as Etomoxir) it was “does not affect the rate of swelling”.
